Results published in patent US20230085307A1, “PYRIDAZINONE COMPOUND AND HERBICIDE” (NISSAN CHEMICAL CORPORATION, priority 2019, published 2023).

Key:
[1] = tested on: late watergrass; experiment: Test Example 1: herbicidal activity, application before weed generation under submerged conditions (Table 16, symbol A); type: in vivo, late watergrass (Echinochloa oryzicola); conditions: amount of applied herbicide 320 g/ha
In short: (§1)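 Alluvial soil was flooded to 4 cm depth, weed seeds were sown mixed and 2.5-leaf rice seedlings were transplanted. On sowing day, the compound's emulsion, diluted in water to a set dose, was applied to the water surface. Plants grew at 25–30 °C and were scored 0–5 after three weeks.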

[2] = tested on: Japanese bulrush; experiment: Test Example 1: herbicidal activity, application before weed generation under submerged conditions (Table 16, symbol B); type: in vivo, Japanese bulrush (Schoenoplectus juncoides); conditions: amount of applied herbicide 320 g/ha
In short: as §1

[3] = tested on: oval-leafed pondweed; experiment: Test Example 1: herbicidal activity, application before weed generation under submerged conditions (Table 16, symbol C); type: in vivo, oval-leafed pondweed (Monochoria vaginalis); conditions: amount of applied herbicide 320 g/ha
In short: as §1

[4] = tested on: barnyard grass; experiment: Test Example 3: herbicidal effect by foliage application, Wagner pot (Table 18, symbol H); type: in vivo, barnyard grass (Echinochloa crus-galli); conditions: 320 g/ha
In short: (§2)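 Plants were sown in alluvial soil held under 0.1–0.5 cm standing water and grown 14 days in a greenhouse at 25–30 °C. An emulsifiable formulation, water-diluted to the set dose, was then sprayed onto the foliage, and effects were scored three weeks later using previously defined criteria.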

[5] = tested on: Chinese sprangletop; experiment: Test Example 3: herbicidal effect by foliage application, Wagner pot (Table 18, symbol D); type: in vivo, chinese sprangletop (Leptochloa chinensis); conditions: 320 g/ha
In short: as §2

[6] = tested on: rice flat sedge; experiment: Test Example 3: herbicidal effect by foliage application, Wagner pot (Table 18, symbol E); type: in vivo, rice flat sedge (Cyperus iria); conditions: 320 g/ha
In short: as §2

[7] = tested on: southern crabgrass; experiment: Test Example 4: herbicidal effect by soil treatment (Table 19, symbol F); type: in vivo, southern crabgrass (Digitaria ciliaris); conditions: amount of applied herbicide 320 g/ha
In short: (§3)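 Scoring uses the grading scale of an earlier test, three weeks post-application. Treatment consists of spraying a diluted emulsion formulation across the surface of sterilized diluvial soil in which seeds are buried near 1.5 cm deep; boxes are kept in a greenhouse between 25° C. and 30° C.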

[8] = tested on: green foxtail; experiment: Test Example 4: herbicidal effect by soil treatment (Table 19, symbol G); type: in vivo, green foxtail (Setaria viridis); conditions: amount of applied herbicide 320 g/ha
In short: as §3

[9] = tested on: barnyard grass; experiment: Test Example 4: herbicidal effect by soil treatment (Table 19, symbol H); type: in vivo, barnyard grass (Echinochloa crus-galli); conditions: amount of applied herbicide 320 g/ha
In short: as §3

[10] = tested on: wild oat; experiment: Test Example 4: herbicidal effect by soil treatment (Table 19, symbol I); type: in vivo, wild oat (Avena fatua); conditions: amount of applied herbicide 320 g/ha
In short: as §3

[11] = tested on: blackgrass; experiment: Test Example 4: herbicidal effect by soil treatment (Table 19, symbol J); type: in vivo, blackgrass (Alopecurus myosuroides); conditions: amount of applied herbicide 320 g/ha
In short: as §3

[12] = tested on: Italian ryegrass; experiment: Test Example 4: herbicidal effect by soil treatment (Table 19, symbol K); type: in vivo, Italian ryegrass (Lolium multiflorum); conditions: amount of applied herbicide 320 g/ha
In short: as §3

[13] = tested on: windgrass; experiment: Test Example 4: herbicidal effect by soil treatment (Table 19, symbol L); type: in vivo, windgrass (Apera spica-venti); conditions: amount of applied herbicide 320 g/ha
In short: as §3

[14] = tested on: velvetleaf; experiment: Test Example 4: herbicidal effect by soil treatment (Table 19, symbol M); type: in vivo, velvetleaf (Abutilon theophrasti); conditions: amount of applied herbicide 320 g/ha
In short: as §3

[15] = tested on: redroot pigweed; experiment: Test Example 4: herbicidal effect by soil treatment (Table 19, symbol N); type: in vivo, redroot pigweed (Amaranthus retroflexus); conditions: amount of applied herbicide 320 g/ha
In short: as §3

[16] = tested on: lambsquarters; experiment: Test Example 4: herbicidal effect by soil treatment (Table 19, symbol O); type: in vivo, lambsquarters (Chenopodium album); conditions: amount of applied herbicide 320 g/ha
In short: as §3

[17] = tested on: chickweed; experiment: Test Example 4: herbicidal effect by soil treatment (Table 19, symbol P); type: in vivo, common chickweed (Stellaria media); conditions: amount of applied herbicide 320 g/ha
In short: as §3

[18] = tested on: persian speedwell; experiment: Test Example 4: herbicidal effect by soil treatment (Table 19, symbol R); type: in vivo, Persian speedwell (Veronica persica); conditions: amount of applied herbicide 320 g/ha
In short: as §3

[19] = tested on: southern crabgrass; experiment: Test Example 5: herbicidal effect by foliage application, plastic box (Table 20, symbol F); type: in vivo, southern crabgrass (Digitaria ciliaris); conditions: 320 g/ha, foliage application after 14-day growth, evaluated three weeks after application
In short: (§4)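 Post-emergence foliar test in sterilized diluvial soil. Compound applied as water-diluted emulsion at a predetermined rate to 14-day-old plants; evaluation at three weeks.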

[20] = tested on: green foxtail; experiment: Test Example 5: herbicidal effect by foliage application, plastic box (Table 20, symbol G); type: in vivo, green foxtail (Setaria viridis); conditions: 320 g/ha, foliage application after 14-day growth, evaluated three weeks after application
In short: as §4

[21] = tested on: barnyard grass; experiment: Test Example 5: herbicidal effect by foliage application, plastic box (Table 20, symbol H); type: in vivo, barnyard grass (Echinochloa crus-galli); conditions: 320 g/ha, foliage application after 14-day growth, evaluated three weeks after application
In short: as §4

[22] = tested on: wild oat; experiment: Test Example 5: herbicidal effect by foliage application, plastic box (Table 20, symbol I); type: in vivo, wild oat (Avena fatua); conditions: 320 g/ha, foliage application after 14-day growth, evaluated three weeks after application
In short: as §4

[23] = tested on: blackgrass; experiment: Test Example 5: herbicidal effect by foliage application, plastic box (Table 20, symbol J); type: in vivo, blackgrass (Alopecurus myosuroides); conditions: 320 g/ha, foliage application after 14-day growth, evaluated three weeks after application
In short: as §4

[24] = tested on: Italian ryegrass; experiment: Test Example 5: herbicidal effect by foliage application, plastic box (Table 20, symbol K); type: in vivo, Italian ryegrass (Lolium multiflorum); conditions: 320 g/ha, foliage application after 14-day growth, evaluated three weeks after application
In short: as §4

[25] = tested on: windgrass; experiment: Test Example 5: herbicidal effect by foliage application, plastic box (Table 20, symbol L); type: in vivo, windgrass (Apera spica-venti); conditions: 320 g/ha, foliage application after 14-day growth, evaluated three weeks after application
In short: as §4

[26] = tested on: velvetleaf; experiment: Test Example 5: herbicidal effect by foliage application, plastic box (Table 20, symbol M); type: in vivo, velvetleaf (Abutilon theophrasti); conditions: 320 g/ha, foliage application after 14-day growth, evaluated three weeks after application
In short: as §4

[27] = tested on: redroot pigweed; experiment: Test Example 5: herbicidal effect by foliage application, plastic box (Table 20, symbol N); type: in vivo, redroot pigweed (Amaranthus retroflexus); conditions: 320 g/ha, foliage application after 14-day growth, evaluated three weeks after application
In short: as §4

[28] = tested on: lambsquarters; experiment: Test Example 5: herbicidal effect by foliage application, plastic box (Table 20, symbol O); type: in vivo, lambsquarters (Chenopodium album); conditions: 320 g/ha, foliage application after 14-day growth, evaluated three weeks after application
In short: as §4

[29] = tested on: chickweed; experiment: Test Example 5: herbicidal effect by foliage application, plastic box (Table 20, symbol P); type: in vivo, common chickweed (Stellaria media); conditions: 320 g/ha, foliage application after 14-day growth, evaluated three weeks after application
In short: as §4

[30] = tested on: persian speedwell; experiment: Test Example 5: herbicidal effect by foliage application, plastic box (Table 20, symbol R); type: in vivo, Persian speedwell (Veronica persica); conditions: 320 g/ha, foliage application after 14-day growth, evaluated three weeks after application
In short: as §4

Compound: COc1ccc2c(-c3c(O)c(C)nn(C)c3=O)c(-c3ccc(OC(F)F)cc3)sc2c1 [3-159]
- Herbicidal effect, A: late watergrass [1]: 0 (Herbicidal rate of 5% or less (almost no effect))
- Herbicidal effect, B: Japanese bulrush [2]: 3 (Herbicidal rate of 40% or more and less than 70%)
- Herbicidal effect, C: oval-leafed pondweed [3]: 3 (Herbicidal rate of 40% or more and less than 70%)
- herbicidal effect on barnyard grass (H) [4]: 2 (Herbicidal rate of 20% or more and less than 40%)
- herbicidal effect on Chinese sprangletop (D) [5]: 0 (Herbicidal rate of 5% or less (almost no effect))
- herbicidal effect on rice flat sedge (E) [6]: 3 (Herbicidal rate of 40% or more and less than 70%)
- Herbicidal effect by soil treatment, F: southern crabgrass [7]: 0 (Herbicidal rate of 5% or less (almost no effect))
- Herbicidal effect by soil treatment, G: green foxtail [8]: 0 (Herbicidal rate of 5% or less (almost no effect))
- Herbicidal effect by soil treatment, H: barnyard grass [9]: 0 (Herbicidal rate of 5% or less (almost no effect))
- Herbicidal effect by soil treatment, I: wild oat [10]: 0 (Herbicidal rate of 5% or less (almost no effect))
- Herbicidal effect by soil treatment, J: blackgrass [11]: 0 (Herbicidal rate of 5% or less (almost no effect))
- Herbicidal effect by soil treatment, K: Italian ryegrass [12]: 0 (Herbicidal rate of 5% or less (almost no effect))
- Herbicidal effect by soil treatment, L: windgrass [13]: 0 (Herbicidal rate of 5% or less (almost no effect))
- Herbicidal effect by soil treatment, M: velvetleaf [14]: 1 (Herbicidal rate of 5% or more and less than 20%)
- Herbicidal effect by soil treatment, N: redroot pigweed [15]: 4 (Herbicidal rate of 70% or more and less than 90%)
- Herbicidal effect by soil treatment, O: lambsquarters [16]: 4 (Herbicidal rate of 70% or more and less than 90%)
- Herbicidal effect by soil treatment, P: chickweed [17]: 0 (Herbicidal rate of 5% or less (almost no effect))
- Herbicidal effect by soil treatment, R: persian speedwell [18]: 3 (Herbicidal rate of 40% or more and less than 70%)
- herbicidal effect on F: southern crabgrass (evaluation grade 0-5) [19]: 0 (Herbicidal rate of 5% or less (almost no effect))
- herbicidal effect on G: green foxtail (evaluation grade 0-5) [20]: 0 (Herbicidal rate of 5% or less (almost no effect))
- herbicidal effect on H: barnyard grass (evaluation grade 0-5) [21]: 0 (Herbicidal rate of 5% or less (almost no effect))
- herbicidal effect on I: wild oat (evaluation grade 0-5) [22]: 0 (Herbicidal rate of 5% or less (almost no effect))
- herbicidal effect on J: blackgrass (evaluation grade 0-5) [23]: 3 (Herbicidal rate of 40% or more and less than 70%)
- herbicidal effect on K: Italian ryegrass (evaluation grade 0-5) [24]: 4 (Herbicidal rate of 70% or more and less than 90%)
- herbicidal effect on L: windgrass (evaluation grade 0-5) [25]: 0 (Herbicidal rate of 5% or less (almost no effect))
- herbicidal effect on M: velvetleaf (evaluation grade 0-5) [26]: 4 (Herbicidal rate of 70% or more and less than 90%)
- herbicidal effect on N: redroot pigweed (evaluation grade 0-5) [27]: 5 (Herbicidal rate of 90% or more (almost completely withered))
- herbicidal effect on O: lambsquarters (evaluation grade 0-5) [28]: 5 (Herbicidal rate of 90% or more (almost completely withered))
- herbicidal effect on P: chickweed (evaluation grade 0-5) [29]: 5 (Herbicidal rate of 90% or more (almost completely withered))
- herbicidal effect on R: persian speedwell (evaluation grade 0-5) [30]: 5 (Herbicidal rate of 90% or more (almost completely withered))
